Assay results reported in patent publication US10806798B2, “Compound with effects of thrombolysis, free radical scavenging and thrombus-targeting” (Shanghai Lumosa Therapeutics Co., Ltd., priority 2012, dated 2020).

System: rats with stroke
Experiment: Successive treatments with 1 μmol/kg Ie starting 6 h after the onset of stroke (Zealonga scores)
Type: in vivo, SD rats
Experimental: The efficacy was represented by neural function scores, and a lower score indicates higher efficacy. A 10% chloral hydrate solution was injected intraperitoneally into male SD rats at a dosage of 400 mg/kg body weight for anesthesia. A longitudinal open incision was made at the center of the neck, and the right common carotid artery trunk was dissected (about 3 cm in length). Carotid external artery branches were each dissected and ligated at the hyoid level, and the carotid internal artery was dissected at the swollen part of the neck. The open incision in the carotid internal artery and the proximal end of the common carotid artery were occluded respectively with noninvasive arterial clips, and the distal end of the carotid external artery was ligated. A catheter containing 0.5 mL thrombus suspension in normal saline was inserted in the carotid external artery trunk. At the same time when the clip on the carotid internal artery was released, the 0.5 mL thrombus suspension in normal saline in the catheter slowly flew from the carotid external artery to its proximal end, and then was injected into the arteries in brain through the carotid internal artery. Subsequently, the proximal end of the carotid artery was ligated, the arterial clips on the carotid internal artery and the common carotid artery were released, and blood flow was restored. After the wound was stitched up, 20,000 IU penicillin was intramuscularly injected for prevention from infection. After 6 h, compound Ie in normal saline (at a dosage of 1 μmol/kg, n=11), urokinase in normal saline (at a dosage of 20000 IU/kg, n=6) or tPA in normal saline (at a dosage of 3 mg/kg, n=6) was infused through the tail vein. Infusion of compound Ie in normal saline through rat tail vein was carried out once per day for 6 consecutive days, observed for 7 days. The rats were compared to themselves each day, and evaluated for the degree of damage in neural function by the Zealonga method. Alternatively, infusion of urokinase in normal saline through rat tail vein was carried out once per day for two consecutive days, the rats were compared to themselves each day, and evaluated for the degree of damage in neural function by the Zealonga method. Alternatively, infusion of tPA in normal saline through rat tail vein was carried out once per day for two consecutive days, the rats were compared to themselves each day, and evaluated for the degree of damage in neural function by the Zealonga method. A score of 0 indicated no sign of loss in neural function, 1 indicated the front limbs on the undamaged side could not stretch out, 2 indicated walking toward the undamaged side, 3 indicated tail-chasing walking in circles toward the undamaged side, 4 indicated involuntary walking with disturbance of consciousness, and 5 indicated death.

[1] = Day 1, urokinase 20000 IU/kg once per day from 6 h after stroke onset, n=6
[2] = Day 2, urokinase 20000 IU/kg once per day from 6 h after stroke onset, n=6

Substance: urokinase
- number of rats scored Score 1 [1]: 1 rat rats
- number of rats scored Score 2 [1]: 1 rat rats
- number of rats scored Score 3 [1]: 4 rats
- number of rats scored Score 0 [2]: 1 rat rats
- number of rats scored Score 2 [2]: 1 rat rats
- rats died (out of 6 rats, within 24 h, urokinase 20000 IU/kg each day from 6 h after stroke onset): 4
- autopsy on the dead rats (urokinase 20000 IU/kg each day from 6 h after stroke onset): hemorrhage in internal organs, particularly severe hemorrhage in lungs
